Results reported in PubChem BioAssay (NCI).
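Tested at 5 concentrations; 48 h exposure; 96-well plates; endpoints linearly interpolated, else capped at highest concentration. At the TGI there is no net growth.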

What was measured:
Test in all cases: NCI tumour cell line growth inhibition, 48 h
SW-620 colon = tested on: SW-620 colon
HCC-2998 colon = tested on: HCC-2998 colon
OVCAR-8 ovarian = tested on: OVCAR-8 ovarian
HOP-92 NSCLC = tested on: HOP-92 NSCLC
RPMI-8226 leukemia = tested on: RPMI-8226 leukemia
NCI-H23 lung = tested on: NCI-H23 lung
786-0 renal = tested on: 786-0 renal
OVCAR-3 ovarian = tested on: OVCAR-3 ovarian
MDA-N = tested on: MDA-N
SNB-19 CNS = tested on: SNB-19 CNS
COLO 205 colon = tested on: COLO 205 colon

Structure (SMILES) | TGI (SW-620 colon) | TGI (HCC-2998 colon) | TGI (OVCAR-8 ovarian) | TGI (HOP-92 NSCLC) | TGI (RPMI-8226 leukemia) | TGI (NCI-H23 lung) | TGI (786-0 renal) | TGI (OVCAR-3 ovarian) | TGI (MDA-N) | TGI (SNB-19 CNS) | TGI (COLO 205 colon)
Cc1cc(-c2nc3ccc(F)cc3s2)ccc1NC(=O)C(N)CCCCN (configuration not stated) | 7.93 µM | 21.4 µM | 22.3 µM | 27.7 µM | 12.5 µM | 18.5 µM | 8.76 µM | 22.4 µM | 5 µM | 25 µM | 14.8 µM
NC1=Nc2ccccc2Sc2nccn21 | > 100 µM | 43 µM | > 100 µM | 40.8 µM | 44.5 µM | 52.2 µM | 57.9 µM | 66 µM | 59.7 µM | > 100 µM | 35.4 µM
CC1(C)C(CBr)=[N+]([O-])C(C)(C)N1O | 4.86 µM | > 10 µM | > 10 µM | 5.5 µM | > 8.63 µM | > 10 µM | 9.78 µM | > 6.74 µM | > 10 µM | > 10 µM | 3.75 µM
Cc1cc(OP2(=O)NCc3ccncc3O2)ccc1Cl (configuration not stated) | > 100 µM | > 100 µM | > 100 µM | > 100 µM | > 100 µM | > 100 µM | > 100 µM | > 100 µM | > 100 µM | > 100 µM | > 100 µM
O=S(=O)(O)c1ccc(N=Nc2ccc(N=Nc3c(O)ccc4ccc(S(=O)(=O)O)cc34)cc2)cc1 | > 100 µM | > 100 µM | > 100 µM | > 100 µM | > 100 µM | > 100 µM | > 100 µM | > 100 µM | > 100 µM | > 100 µM | > 100 µM
COC(=O)c1ccc(Oc2nc3ccc(C(F)(F)F)cc3nc2-c2ccccc2)cc1 | > 100 µM | > 100 µM | > 100 µM | > 100 µM | > 100 µM | > 100 µM | > 100 µM | > 100 µM | > 100 µM | – | > 100 µM
COc1cc(/C=C2\N=C(c3ccccc3)N(c3nc4ccccc4s3)C2=O)cc(OC)c1OC | > 100 µM | > 100 µM | > 100 µM | 74.5 µM | 16.7 µM | > 100 µM | 69.3 µM | 60.4 µM | 54.4 µM | > 100 µM | –
CCN(CC)CCOCCOCC1(c2ccc(Cl)c(Cl)c2)CCCCC1 | 21.9 µM | 14.8 µM | 28.8 µM | 17.7 µM | 6.45 µM | 24.5 µM | 9.07 µM | 22.3 µM | 13.8 µM | 26.4 µM | 11.9 µM
CCOc1cc2c(cc1O)C=C[C@@H]1[C@@H]2CC[C@]2(C)[C@@H](O)CC[C@@H]12 | > 35.3 µM | 18.7 µM | > 62.4 µM | > 100 µM | > 100 µM | > 48.1 µM | > 43.4 µM | 6.74 µM | > 100 µM | > 55.4 µM | 47.2 µM
Cc1ccc(N2C=Nn3c(nc4sc5c(c4c3=O)CCCC5)C2)cc1 | > 100 µM | > 100 µM | > 100 µM | > 100 µM | > 100 µM | > 100 µM | > 100 µM | > 100 µM | > 100 µM | > 100 µM | > 100 µM
CC(=O)OC(OC(C)=O)c1c2ccccc2cc2ccccc12 | > 100 µM | 40.5 µM | 41.8 µM | 57.5 µM | 87.2 µM | > 100 µM | 43.5 µM | 67.3 µM | 63.7 µM | 96.3 µM | 37.2 µM
N#CC1(C#N)C(=O)c2ccncc2C1=O | > 100 µM | > 100 µM | > 100 µM | > 100 µM | > 100 µM | > 100 µM | – | > 100 µM | > 100 µM | > 100 µM | > 100 µM
C[C@H](CCC(=O)O)[C@H]1CC[C@H]2[C@@H]3[C@H](O)[C@H](O)[C@@H]4C[C@H](O)CC[C@]4(C)[C@H]3CC[C@]12C | > 100 µM | > 100 µM | > 100 µM | > 100 µM | > 100 µM | > 100 µM | > 100 µM | – | > 100 µM | > 100 µM | > 100 µM
O=C1C2CCCC2N1Cc1ccccc1 (configuration not stated) | > 100 µM | > 100 µM | > 100 µM | > 100 µM | > 100 µM | > 100 µM | > 100 µM | > 100 µM | > 100 µM | – | > 100 µM
CCOC(=O)c1ccc(Nc2nc3ccccc3n3cccc23)cc1 | > 100 µM | > 100 µM | > 100 µM | > 100 µM | > 100 µM | > 100 µM | > 100 µM | > 100 µM | > 100 µM | > 100 µM | > 100 µM
N#CC12CC(C=O)=C(N)C1(C#N)CC(C=O)=C2N (configuration not stated) | > 100 µM | 80 µM | > 100 µM | > 100 µM | > 100 µM | > 100 µM | > 100 µM | – | > 100 µM | > 100 µM | > 100 µM
CCc1cc2c(cc1C(=O)CCC(=O)O)CC1(C2)Cc2cc(CC)c(C(=O)CCC(=O)O)cc2C1 | > 100 µM | > 100 µM | > 100 µM | > 100 µM | > 100 µM | > 100 µM | > 100 µM | > 100 µM | > 100 µM | > 100 µM | > 100 µM

Structure (SMILES) | TGI (SW-620 colon) | TGI (HCC-2998 colon) | TGI (OVCAR-8 ovarian) | TGI (HOP-92 NSCLC) | TGI (RPMI-8226 leukemia) | TGI (NCI-H23 lung) | TGI (786-0 renal) | TGI (OVCAR-3 ovarian) | TGI (MDA-N) | TGI (SNB-19 CNS) | TGI (COLO 205 colon)
CCOC(=O)C1=NN(c2ccc(C)cc2)C2(c3ccccc3)C=C(c3ccccc3)N(C)CCN12 (configuration not stated) | > 100 µM | > 100 µM | > 100 µM | > 100 µM | > 100 µM | > 100 µM | > 100 µM | > 100 µM | > 100 µM | > 100 µM | > 100 µM
Cn1c2ccccc2c2c3c(c4c5ccccc5n(C)c4c21)C(=O)N(Cc1ccccc1)C3=O | > 100 µM | > 100 µM | > 100 µM | > 100 µM | > 100 µM | > 100 µM | > 100 µM | – | > 100 µM | > 100 µM | > 100 µM
NS(=O)(=O)c1ccc(N=Nc2ccc(O)cc2)cc1 | > 100 µM | > 100 µM | > 100 µM | > 100 µM | > 100 µM | > 100 µM | > 100 µM | > 100 µM | > 100 µM | > 100 µM | > 100 µM
COC(=O)[C@H](Cc1ccccc1)NC(=O)OCC1OC(n2cc(C)c(=O)[nH]c2=O)CC1N=[N+]=[N-] (some centres not stated) | > 100 µM | > 100 µM | > 100 µM | > 100 µM | > 100 µM | > 100 µM | > 100 µM | > 100 µM | > 100 µM | > 100 µM | > 100 µM
CC(=O)OCCCCn1nncc1Cn1ccc(=O)n(Cc2cnnn2CCCCOC(C)=O)c1=O | > 100 µM | > 100 µM | > 100 µM | > 100 µM | > 100 µM | > 100 µM | > 100 µM | > 100 µM | > 100 µM | > 100 µM | > 100 µM
CCCNC(=O)Cn1c2c(c3ccccc31)CCCC2 | > 100 µM | > 100 µM | > 100 µM | > 100 µM | > 100 µM | > 100 µM | > 100 µM | > 100 µM | > 100 µM | > 100 µM | > 100 µM
Fc1ccccc1-c1cc(=S)c2cc3c(cc2[nH]1)OCO3 | > 100 µM | > 45.5 µM | > 100 µM | > 100 µM | > 70 µM | > 100 µM | > 100 µM | > 100 µM | > 26.7 µM | 98.1 µM | > 89 µM
Cc1cn(CCCCOC(=O)NC(CCCN=C(N)N)C(=O)O)c(=O)[nH]c1=O (configuration not stated) | > 100 µM | > 100 µM | > 100 µM | > 100 µM | > 100 µM | > 100 µM | > 100 µM | > 100 µM | > 100 µM | > 100 µM | > 100 µM
CC(C)(C)OC(=O)NCC(c1c[nH]c2cc(Br)ccc12)c1c[nH]c2cc(Br)ccc12 | > 100 µM | 38.4 µM | 36.5 µM | 28.6 µM | > 100 µM | 34.2 µM | 33.5 µM | 29.1 µM | 34.4 µM | 46.2 µM | 34.7 µM
Cc1cn(C(CO)OC(CO)CN(O)C2C3CC4CC(C3)CC2C4)c(=O)[nH]c1=O (configuration not stated) | > 100 µM | > 100 µM | > 100 µM | > 100 µM | > 100 µM | > 100 µM | > 100 µM | – | > 100 µM | > 100 µM | > 100 µM
O=C(CSc1nc2ccc(I)cc2c(=O)n1Cc1ccccc1)NNC(=S)Nc1ccccc1 | > 100 µM | > 100 µM | – | > 100 µM | > 100 µM | > 100 µM | > 100 µM | > 100 µM | > 100 µM | > 100 µM | > 100 µM
CC(C)(C)n1[nH]c(=O)n(C(C)(C)C)c1=O | > 100 µM | > 100 µM | – | > 100 µM | > 100 µM | > 100 µM | > 100 µM | > 100 µM | > 100 µM | > 100 µM | > 100 µM
CCCCCCCCCCCCCC(=O)OCC(CCS(=O)(=O)O[C@H]1CC[C@@]2(C)C(=CC[C@@H]3C2CC[C@]2(C)C(=O)CCC32)C1)OC(=O)CCCCCCCCCCCCC (some centres not stated) | > 100 µM | > 100 µM | – | > 100 µM | > 100 µM | > 100 µM | > 100 µM | > 100 µM | > 100 µM | > 100 µM | > 100 µM
C=CC(=C)CCC(Br)C(C)(C)Br (configuration not stated) | > 100 µM | > 100 µM | > 100 µM | > 100 µM | > 100 µM | > 100 µM | > 100 µM | > 100 µM | > 100 µM | > 100 µM | > 100 µM
CN1/C(=C\N=O)C(C)(C)N(O)C1(C)C | > 100 µM | > 100 µM | > 100 µM | > 100 µM | > 100 µM | > 100 µM | > 100 µM | > 100 µM | > 100 µM | > 100 µM | > 100 µM
Cc1cc2c3c(nc2c2cc[nH]c(C)c12)CCCC3 | 3.79 µM | 3.43 µM | 4.96 µM | 7.3 µM | 4.56 µM | 10.4 µM | 3.04 µM | 5.07 µM | 3.32 µM | – | 3.37 µM
Cc1nc(-c2cccnc2)sc1C(=O)CC(=O)C(=O)Nc1cccc(NC(=O)C(=O)CC(=O)c2sc(-c3cccnc3)nc2C)n1 | > 100 µM | > 100 µM | > 100 µM | > 100 µM | > 100 µM | > 100 µM | > 100 µM | > 100 µM | > 100 µM | > 100 µM | > 100 µM
